Data taken from patent US6908919B2, “Substituted polycyclic aryl and heteroaryl pyrazinones useful for selective inhibition of the coagulation cascade” (Pharmacia Corporation, priority 1999, dated 2005).
Where two headings read alike, the source gives them in different places.

Key:
Human factor Xa = Human factor Xa (Homo sapiens, UniProt P00742); experiment: Xa Assay; type: biochemical; design: purchased Enzyme Research Laboratories, South Bend Ind
[1] = target: T1, recombinant soluble tissue factor and recombinant human factor VIIa (TF-VIIa) (Homo sapiens, UniProt P08709); experiment: TF-VIIa Assay; type: biochemical; conditions: for % Inhibition TF-VIIa (30 µM): at 30 µM inhibitor; for IC50: read-out: IC50 TF-VIIa
T1 construct: conversion of coagulation factor VII to VIIa by Xa; purchased American Diagnostica, Greenwich Conn; host or cells: VIIa purchased; soluble TF made in house in E. coli
T1 sequence (P08709 61-212 limits assumed): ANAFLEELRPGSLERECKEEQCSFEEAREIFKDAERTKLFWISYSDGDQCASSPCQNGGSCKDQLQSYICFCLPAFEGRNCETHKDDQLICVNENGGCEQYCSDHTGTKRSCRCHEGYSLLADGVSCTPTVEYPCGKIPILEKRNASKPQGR
T1 sequence (P08709 213-466 limits assumed): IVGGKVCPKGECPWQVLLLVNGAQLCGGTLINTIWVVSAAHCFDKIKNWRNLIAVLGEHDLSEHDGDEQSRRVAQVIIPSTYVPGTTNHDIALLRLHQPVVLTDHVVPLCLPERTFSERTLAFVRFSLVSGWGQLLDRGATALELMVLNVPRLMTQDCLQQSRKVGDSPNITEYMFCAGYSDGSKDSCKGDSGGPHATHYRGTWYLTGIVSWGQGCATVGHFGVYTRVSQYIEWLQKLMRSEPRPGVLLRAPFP
T1 sequence (P13726 33-251 partner limits assumed): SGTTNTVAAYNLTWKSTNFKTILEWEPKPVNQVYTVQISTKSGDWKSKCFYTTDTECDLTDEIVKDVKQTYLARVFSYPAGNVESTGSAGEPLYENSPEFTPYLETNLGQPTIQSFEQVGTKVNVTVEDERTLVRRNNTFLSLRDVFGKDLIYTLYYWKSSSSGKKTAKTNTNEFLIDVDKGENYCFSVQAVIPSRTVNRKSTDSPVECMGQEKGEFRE

Human factor Xa, sequence (P00742 41-179 limits assumed): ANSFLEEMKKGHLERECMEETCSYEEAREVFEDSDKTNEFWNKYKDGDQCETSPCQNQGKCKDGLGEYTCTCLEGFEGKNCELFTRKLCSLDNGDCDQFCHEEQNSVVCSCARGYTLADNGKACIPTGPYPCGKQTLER
Human factor Xa, sequence (P00742 235-488 limits assumed): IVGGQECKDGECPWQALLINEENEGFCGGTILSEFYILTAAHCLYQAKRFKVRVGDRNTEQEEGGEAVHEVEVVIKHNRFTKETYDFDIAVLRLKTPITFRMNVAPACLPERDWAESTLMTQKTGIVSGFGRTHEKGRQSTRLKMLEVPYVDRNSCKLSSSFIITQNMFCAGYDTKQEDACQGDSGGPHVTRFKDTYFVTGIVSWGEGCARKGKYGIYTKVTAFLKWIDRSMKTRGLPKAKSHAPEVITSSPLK

Row | SMILES | % Inhibition Factor Xa (30 µM) (Human factor Xa; at 30 µM inhibitor) | % Inhibition Factor Xa (30 µM) (Human factor Xa; at 30 µM) [%] | other results
1 | N=C(N)c1ccc(CNC(=O)Cn2c(-c3ccc(Cl)cc3)c(Cl)nc(NCc3ccncc3)c2=O)cc1 [1471-19] | 26% | – | % Inhibition TF-VIIa (30 µM) [1]: 33%
2 | N=C(N)c1ccc(CNC(=O)Cn2c(-c3ccc(Cl)cc3)c(Cl)nc(NCCN3CCOCC3)c2=O)cc1 [1471-20] | 34% | – | % Inhibition TF-VIIa (30 µM) [1]: 42%
3 | COc1ccc(-c2c(Cl)nc(NCc3ccccc3)c(=O)n2CC(=O)NCc2ccc(C(=N)N)cc2)cc1 [1471-33] | 22% | – | % Inhibition TF-VIIa (30 µM) [1]: 31%
4 | COc1ccc(-c2c(Cl)nc(NCc3ccncc3)c(=O)n2CC(=O)NCc2ccc(C(=N)N)cc2)cc1 [1471-35] | 22% | – | % Inhibition TF-VIIa (30 µM) [1]: 37%
5 | N=C(N)c1ccc(CNC(=O)Cn2c(-c3ccccc3)c(Cl)nc(NC(Cc3ccccc3)c3ccccc3)c2=O)cc1 (stereo not drawn) [1507-07] | – | – | % Inhibition TF-VIIa (30 µM) [1]: 25%
6 | N=C(N)c1ccc(CNC(=O)Cn2c(-c3ccccc3)c(Cl)nc(NCc3ccc(Cl)cc3Cl)c2=O)cc1 [1507-22] | – | – | % Inhibition TF-VIIa (30 µM) [1]: 45%
7 | N=C(N)c1ccc(CNC(=O)Cn2c(-c3ccccc3)c(Cl)nc(NCc3cccc4ccccc34)c2=O)cc1 [1507-28] | – | – | % Inhibition TF-VIIa (30 µM) [1]: 38%
8 | N=C(N)c1ccc(CNC(=O)Cn2c(-c3ccc(C(F)(F)F)cc3)c(Cl)nc(NC3CCC3)c2=O)cc1 [1515-20] | – | – | % Inhibition TF-VIIa (30 µM) [1]: 32%
9 | CSc1ccc(N)cc1-c1c(Cl)nc(NC(C)C)c(=O)n1CC(=O)NCc1ccc(C(=N)N)cc1 [Example 76] | 0% | – | –
10 | Cc1ccccc1-c1c(Cl)nc(NCCc2ccccc2)c(=O)n1CC(=O)NCc1ccc(C(=N)N)cc1 [Example 78] | 16% @ 30 | – | –
11 | N=C(N)c1ccc(CNC(=O)Cn2c(-c3cccc4ccccc34)c(Cl)nc(NCCc3ccccc3)c2=O)cc1 [Example 80] | 29% @ 30 | – | –
12 | Cc1cccc(-c2c(Cl)nc(NCCc3ccccc3)c(=O)n2CC(=O)NCc2ccc(C(=N)N)cc2)c1 [Example 81] | 33% @ 30 | – | –
13 | N=C(N)c1ccc(CNC(=O)Cn2c(-c3ccc4ccccc4c3)c(Cl)nc(NCCc3ccccc3)c2=O)cc1 [Example 82] | 32% @ 30 | – | –
14 | Cc1cccc(-c2cnc(NCCc3ccccc3)c(=O)n2CC(=O)NCc2ccc(C(=N)N)cc2)c1 [Example 85] | 42% @ 30 | – | –
15 | N=C(N)c1ccc(CNC(=O)Cn2c(-c3cccc(N)c3)c(Cl)nc(NCCc3ccccc3)c2=O)cc1 [Example 86] | 26% @ 30 | – | –
16 | N=C(N)c1ccc(CNC(=O)Cn2c(-c3cccc(N)c3)c(Cl)nc(NC3CCC3)c2=O)cc1 [Example 90] | 16% @ 30 | – | –
17 | N=C(N)c1ccc(CNC(=O)Cn2c(-c3cccc(N)c3)cnc(NC3CCC3)c2=O)cc1 [Example 92] | 18% @ 30 | – | –
18 | Cc1c(N)cccc1-c1cnc(NC(C)C)c(=O)n1CC(=O)NCc1ccc(C(=N)N)cc1 [Example 98] | 10% @ 30 | – | –
19 | CC(C)Nc1nc(Cl)c(-c2cc(N)cc(C(=O)O)c2)n(CC(=O)NCc2ccc(C(=N)N)cc2)c1=O [Example 123] | – | – | IC50 [1]: 20 nM

Row | SMILES | % Inhibition Factor Xa (30 µM) (Human factor Xa; at 30 µM inhibitor) | % Inhibition Factor Xa (30 µM) (Human factor Xa; at 30 µM) [%] | other results
20 | CC(C)Nc1nc(Cl)c(-c2cc(N)cc(C(=O)NCc3ccccc3Cl)c2)n(CC(=O)NCc2ccc(C(=N)N)cc2)c1=O [Example 128-10] | – | – | IC50 [1]: 9 nM
21 | CC(C)Nc1nc(Cl)c(-c2cc(N)cc(C(=O)NCCCc3ccccc3)c2)n(CC(=O)NCc2ccc(C(=N)N)cc2)c1=O [Example 128-21] | – | – | IC50 [1]: 37 nM
22 | CC(C)Nc1nc(Cl)c(-c2cc(N)cc(C(=O)NCC(c3ccccc3)c3ccccc3)c2)n(CC(=O)NCc2ccc(C(=N)N)cc2)c1=O [Example 128-22] | – | – | IC50 [1]: 52 nM
23 | CC(C)Nc1nc(Cl)c(-c2cc(N)cc(C(=O)NCc3ccc4ccccc4c3)c2)n(CC(=O)NCc2ccc(C(=N)N)cc2)c1=O [Example 128-23] | – | – | IC50 [1]: 33.7 nM
24 | CC(C)Nc1nc(Cl)c(-c2cc(N)cc(C(=O)NC3CCc4ccccc4C3)c2)n(CC(=O)NCc2ccc(C(=N)N)cc2)c1=O (stereo not drawn) [Example 128-24] | – | – | IC50 [1]: 18.7 nM
25 | C[C@@H](Nc1nc(Cl)c(-c2cccc(N)c2)n(CC(=O)NCc2ccc(C(=N)N)cc2)c1=O)C(=O)O [Example 134] | – | – | IC50 [1]: 51 nM
26 | N=C(N)c1ccc(CNC(=O)Cn2c(-c3ccsc3)c(Cl)nc(NCc3ccccc3)c2=O)cc1 [Example 1517-01] | 0% | – | –
27 | C[C@@H](C(=O)NCc1ccc(C(=N)N)cc1)n1c(-c2ccccc2)c(Cl)nc(NCc2ccccc2)c1=O [Example 1517-03] | 0% | – | –
28 | CSCC(C(=O)NCc1ccc(C(=N)N)cc1)n1c(-c2ccccc2)c(Cl)nc(NCc2ccccc2)c1=O (stereo not drawn) [Example 1517-04] | 0% | – | –
29 | C[C@H](C(=O)NCc1ccc(C(=N)N)cc1)n1c(-c2ccccc2)c(Cl)nc(NCc2ccccc2)c1=O [Example 1517-05] | 0% | – | –
30 | N=C(N)c1ccc(CNC(=O)Cn2c(-c3c(Cl)cccc3Cl)c(Cl)nc(NCc3ccccc3)c2=O)cc1 [Example 1517-06] | 0% | – | –
31 | N=C(N)c1ccc(CNC(=O)Cn2c(-c3ccsc3)c(Cl)nc(NC3CCC3)c2=O)cc1 [Example 1517-07] | 0% | – | –
32 | C[C@@H](C(=O)NCc1ccc(C(=N)N)cc1)n1c(-c2ccccc2)c(Cl)nc(NC2CCC2)c1=O [Example 1517-09] | 0% | – | –
33 | CSCC(C(=O)NCc1ccc(C(=N)N)cc1)n1c(-c2ccccc2)c(Cl)nc(NC2CCC2)c1=O (stereo not drawn) [Example 1517-10] | 0% | – | –
34 | C[C@H](C(=O)NCc1ccc(C(=N)N)cc1)n1c(-c2ccccc2)c(Cl)nc(NC2CCC2)c1=O [Example 1517-11] | 0% | – | –
35 | N=C(N)c1ccc(CNC(=O)Cn2c(-c3c(Cl)cccc3Cl)c(Cl)nc(NC3CCC3)c2=O)cc1 [Example 1517-12] | – | 0 | –
36 | N=C(N)c1ccc(CNC(=O)Cn2c(-c3ccsc3)c(Cl)nc(NCCc3ccccc3)c2=O)cc1 [Example 1517-13] | – | 0 | –
37 | C[C@@H](C(=O)NCc1ccc(C(=N)N)cc1)n1c(-c2ccccc2)c(Cl)nc(NCCc2ccccc2)c1=O [Example 1517-15] | – | 0 | –
38 | CSCC(C(=O)NCc1ccc(C(=N)N)cc1)n1c(-c2ccccc2)c(Cl)nc(NCCc2ccccc2)c1=O (stereo not drawn) [Example 1517-16] | – | 0 | –

Row | SMILES | % Inhibition Factor Xa (30 µM) (Human factor Xa; at 30 µM inhibitor) | % Inhibition Factor Xa (30 µM) (Human factor Xa; at 30 µM) [%] | other results
39 | C[C@H](C(=O)NCc1ccc(C(=N)N)cc1)n1c(-c2ccccc2)c(Cl)nc(NCCc2ccccc2)c1=O [Example 1517-17] | – | 0 | –
40 | N=C(N)c1ccc(CNC(=O)Cn2c(-c3c(Cl)cccc3Cl)c(Cl)nc(NCCc3ccccc3)c2=O)cc1 [Example 1517-18] | – | 0 | –
41 | N=C(N)c1ccc(CNC(=O)Cn2c(-c3ccsc3)c(Cl)nc(NCCc3cccc(Cl)c3)c2=O)cc1 [Example 1517-19] | – | 0 | –
42 | C[C@H](C(=O)NCc1ccc(C(=N)N)cc1)n1c(-c2ccccc2)c(Cl)nc(NCCc2cccc(Cl)c2)c1=O [Example 1517-23] | – | 0 | –
43 | N=C(N)c1ccc(CNC(=O)Cn2c(-c3c(Cl)cccc3Cl)c(Cl)nc(NCCc3cccc(Cl)c3)c2=O)cc1 [Example 1517-24] | – | 0 | –
44 | N=C(N)c1ccc(CNC(=O)Cn2c(-c3ccccc3)c(Cl)nc(NC3CCCCC3)c2=O)cc1 [Example 1517-25] | – | 0 | –
45 | CCCC(CCC)Nc1nc(Cl)c(-c2ccccc2)n(CC(=O)NCc2ccc(C(=N)N)cc2)c1=O [Example 1517-26] | – | 0 | –
46 | CC(C)N(C)c1nc(Cl)c(-c2ccccc2)n(CC(=O)NCc2ccc(C(=N)N)cc2)c1=O [Example 1517-31] | – | 0 | –
47 | CCCNc1nc(Cl)c(-c2ccccc2)n(CC(=O)NCc2ccc(C(=N)N)cc2)c1=O [Example 1517-33] | – | 0 | –
48 | C[Si](C)(C)CNc1nc(Cl)c(-c2ccccc2)n(CC(=O)NCc2ccc(C(=N)N)cc2)c1=O [Example 1517-36] | – | 0 | –
49 | CC(C)CCNc1nc(Cl)c(-c2ccccc2)n(CC(=O)NCc2ccc(C(=N)N)cc2)c1=O [Example 1517-40] | – | 0 | –
50 | CC(C)(C)CCNc1nc(Cl)c(-c2ccccc2)n(CC(=O)NCc2ccc(C(=N)N)cc2)c1=O [Example 1517-41] | – | 0 | –
51 | CCCCCNc1nc(Cl)c(-c2ccccc2)n(CC(=O)NCc2ccc(C(=N)N)cc2)c1=O [Example 1517-48] | – | 0 | –
52 | O=C(Cn1c(-c2ccc(Cl)cc2)c(Cl)nc(NCCc2cccc(Cl)c2)c1=O)NCCc1ccncc1 [Example E-0027] | – | – | % Inhibition Factor Xa (100 µM) (Human factor Xa; inhibitor at 100 µM): 0%
53 | O=C(Cn1c(-c2ccc(Cl)cc2)c(Cl)nc(NCCN2CCOCC2)c1=O)NCCc1ccncc1 [Example E-0031] | – | – | % Inhibition Factor Xa (100 µM) (Human factor Xa; inhibitor at 100 µM): 0%
54 | COc1ccc(-c2c(Cl)nc(NCCc3ccccc3)c(=O)n2CC(=O)NCCc2ccncc2)cc1 [Example E-0100] | – | – | % Inhibition Factor Xa (100 µM) (Human factor Xa; inhibitor at 100 µM): 6%
55 | O=C(Cn1c(-c2ccc(-c3ccccc3)cc2)c(Cl)nc(NCCc2cccc(Cl)c2)c1=O)NCCc1cccnc1 [Example E-0116] | – | – | % Inhibition Factor Xa (100 µM) (Human factor Xa): 4%
56 | O=C(Cn1c(-c2ccc(-c3ccccc3)cc2)c(Cl)nc(NCCc2ccc(Cl)cc2)c1=O)NCCc1cccnc1 [Example E-0119] | – | – | % Inhibition Factor Xa (100 µM) (Human factor Xa): 5%
